Reference: PMC8359193, “Summary of reference chemicals evaluated by the fish short‐term reproduction assay, OECD TG229, using Japanese Medaka, Oryzias latipes” (Journal of Applied Toxicology, 2021)
Entries after “also recorded” stand apart in the source; their conditions may differ. Like-named read-outs stand apart in the source and are kept apart here.

Biological target: T1, medaka Esr1 (mEsr1) (Oryzias latipes, UniProt P50241)
T1 construct: expressed in transfected cells; host or cells: HEK293 (human embryonic kidney cells), transient transfection with FuGENE HD
T1 sequence (P50241 1-620): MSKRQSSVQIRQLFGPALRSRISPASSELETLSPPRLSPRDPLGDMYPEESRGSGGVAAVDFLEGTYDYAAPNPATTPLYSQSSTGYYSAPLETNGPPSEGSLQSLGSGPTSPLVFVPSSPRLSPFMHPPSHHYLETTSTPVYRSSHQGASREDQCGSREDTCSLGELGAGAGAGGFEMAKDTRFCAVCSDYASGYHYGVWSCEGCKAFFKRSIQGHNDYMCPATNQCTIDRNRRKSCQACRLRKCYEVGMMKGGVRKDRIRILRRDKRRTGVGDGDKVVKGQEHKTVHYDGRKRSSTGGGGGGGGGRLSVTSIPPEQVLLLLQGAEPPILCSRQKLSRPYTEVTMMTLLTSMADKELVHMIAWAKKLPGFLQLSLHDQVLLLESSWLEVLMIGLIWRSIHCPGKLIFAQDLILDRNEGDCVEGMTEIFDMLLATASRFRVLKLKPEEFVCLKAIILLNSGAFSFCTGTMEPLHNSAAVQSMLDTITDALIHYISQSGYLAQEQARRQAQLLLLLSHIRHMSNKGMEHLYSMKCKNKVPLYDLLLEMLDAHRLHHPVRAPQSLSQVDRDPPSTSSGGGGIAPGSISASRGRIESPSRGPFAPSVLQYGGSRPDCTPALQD
Assay: Medaka Esr1 reporter gene assay (RGA), antagonist assay with 1 nM E2, HEK293 cells
Assay type: cell-based, Japanese medaka (Oryzias latipes)
Description: To support interpretation of the biological effects observed in the FSTRA studies, in vitro RGAs using medaka Esr1 (mEsr1) and medaka ARβ (mARβ) were performed for the 16 test chemicals. In the present study, Esr1 and ARβ, which are ancestral subtypes among Esrs and ARs in Japanese medaka, were selected based on the phylogenetical analyses of Esr and AR with each receptor RGAs (Ogino et al., [2016], [2018]; Tohyama et al., [2015]).
The mEsr1 RGA consisting of agonist and antagonist assays were performed according to the methods previously reported (Katsu et al., [2010]; Lange et al., [2012]; Miyagawa et al., [2014]). Briefly, human embryonic kidney cells 293 (HEK293), precultured, were seeded in 96‐well plates at 15,000 cells/well with 200 μl of culture medium, phenol‐red‐free Dulbecco's Modified Eagle's medium (ThermoFisher Scientific K.K., Tokyo, Japan) supplemented with 2‐mM L‐glutamine and 10% charcoal/dextran‐treated fetal bovine serum (Hyclone, UT, USA), and then incubated for 24 h in 5% CO2 at 37°C. After the 24‐h incubation, 20 μl of test medium containing 40 ng of medaka Esr1/pcDNA3.1, 80 ng of ERE‐TK‐Luc, and 20 ng of pRL‐TK‐Rlu and 1.2 μL of transfection reagent FuGENE HD (Promega, WI, USA) were added into each well. The assay plates were incubated for another 4 h in order to transfect the three vectors into the HEK293 cells. After the vectors were successfully transfected, in agonist assay, 24 μl of concentrated test chemical solution was applied to the test medium in the plate wells. […] After chemical treatment for 40 h, luciferase activity of the cells was measured, and the promoter activity was calculated as firefly (Photinus pyralis)‐/sea pansy (Renilla reniformis)‐luciferase activity in each well. The luciferase activities were quantified by a chemiluminescence assay with Dual‐Luciferase Reporter Assay System (Promega) in accordance with the manufacturer's instructions, and luminescence intensity of firefly and sea pansy luciferin was measured using a luminometer, TriStar LB941 (Berthold Technology, Oak Ridge, TN, USA).
Effect concentrations, that is, EC50 (a half maximal effective concentration) in the agonist assay and IC50 (a half maximal inhibitory concentration) in the antagonist assay, were estimated by nonlinear curve fitting (e.g., three parameters logistic regression curve) using GraphPad Prism (GraphPad Software Inc., La Jolla, CA, USA).

[1] = mEsr1 RGA antagonist assay, 1 nM E2-mediated transactivation, ND = no significant response even at the highest assay concentration (in parentheses), read-out: Antagonist assay, IC50, Medaka Esr1

## CC(=O)N1CCN(c2ccc(OCC3COC(Cn4ccnc4)(c4ccc(Cl)cc4Cl)O3)cc2)CC1 (stereo not shown) [KCZ, Ketoconazole]
  IC50: > 10 µM

## C#C[C@]1(O)CC[C@H]2[C@@H]3CCC4=CC(=O)CC[C@@H]4[C@H]3CC[C@@]21CC [LNG, Levonorgestrel]
  IC50: > 100 µM

## C[C@]12CCC(=O)C=C1CC[C@@H]1[C@@H]2CC[C@@]2(C)[C@H]1CC[C@]2(C)O [MT, 17α‐methyltestosterone]
[1]
  IC50: > 10 µM

## CC(=O)[C@H]1CC[C@H]2[C@@H]3CCC4=CC(=O)CC[C@]4(C)[C@H]3CC[C@]12C [P4, Progesterone]
  IC50: > 10 µM

## CCCCCCCCCCCCOS(=O)(=O)[O-].[Na+] [SDS, Sodium dodecyl sulfate]
1 nM E2-mediated mEsr1 transactivation
  mEsr1 antagonist activity (in words): no Esr inhibiting activity; also recorded: neithEsr agonistic nor antagonistic activity
[1]
  IC50: > 100 µM

## C[C@]12C=CC3=C4CCC(=O)C=C4CC[C@H]3[C@@H]1CC[C@@H]2O [TRB, 17β‐Trenbolone]
  IC50: > 10 µM
